Reference: patent US20120220590A1, “NOVEL COMPOUNDS AS MODULATORS OF GLUCOCORTICOID RECEPTORS” (priority 2009, published 2012)

Columns and labels:
[1] = test system: LPS-induced IL-6 secretion in U 937 cells; assay: Modulation of proinflammatory cytokine production in U 937 cells (transrepression): IL-6; format: cell-based; details: Homo sapiens, U 937 cells stimulated with 5 μg/mL LPS, ELISA; for inhibition at 0.1 µM: 0.1 μM test compound; for inhibition at 1 µM: 1 μM test compound
Description: (§1) VI) Modulation of Proinflammatory Cytokine Production in U 937 Cells (Determination of Transrepression)
(§2) Testing of compounds in GR-mediated inhibition of LPS-induced TNFα, IL-1β, and IL-6 secretion in U 937 cells.
(§3) Differentiated U 937 cells are incubated for 2 days in RPMI1640 medium containing 10% CCS (charcoal treated calf serum). The cells are transferred to 96 well plates and stimulated with 5 μg/mL LPS (dissolved in PBS) in the presence or absence of dexamethasone or test compound (dissolved in DMSO, final concentration 0.2%). Control cells are treated with 0.2% DMSO. After required incubation periods, proinflammatory cytokine(s) concentrations in the cell supernatant are measured by ELISA, using the “BD OptEIA™ Set human TNF, BD OptEIA™ Set human IL-6, BD OptEIA™ Set human IL-1β.
(§4) TNF α inhibition induced by Dexamethasone at 10 nM concentration was considered as 100% and % inhibition of the test NCE was determined as compared to Dexamethasone. Dose-response curves are calculated by fitting to a non-linear 4-parameter logistic model, and absolute EC50 (or IC50) values for the determination of dissociation are derived from these curves and the corresponding curve for dexamethasone on the same experimental occasion.

[2] = test system: LPS-induced TNFα secretion in U 937 cells; assay: Modulation of proinflammatory cytokine production in U 937 cells (transrepression): TNFα; format: cell-based; details: Homo sapiens, U 937 cells stimulated with 5 μg/mL LPS, inhibition by Dexamethasone at 10 nM considered as 100%, read-out: % TNF α Inhibition; for inhibition at 0.1 µM: 0.1 μM test compound; for inhibition at 1 µM: 1 μM test compound
Description: as §1, §2, §3, §4

CCS(=O)(=O)Nc1cccc(N(Cc2ccc(Oc3cccc(OCC4CCOC4)c3)cc2)Cc2cccc(C#N)c2)c1C (centres unmarked) [Example 16, N-(3-((3-cyanobenzyl)(4-(3-((tetrahydrofuran-3-yl)methoxy)phenoxy)benzyl)amino)-2-methylphenyl)ethanesulfonamide]
inhibition at 0.1 µM [1]: 62% | inhibition at 1 µM [1]: 81% | inhibition at 0.1 µM [2]: 63.2% | inhibition at 1 µM [2]: 87.4%

Cc1c(NS(C)(=O)=O)cccc1N(Cc1ccc(Oc2cccc(OCCc3cccnc3)c2)cc1)Cc1cccc(C#N)c1 [Example 62, N-(3-((3-cyanobenzyl)(4-(3-(2-(pyridin-3-yl)ethoxy)phenoxy)benzyl)amino)-2-methylphenyl)methanesulfonamide]
inhibition at 0.1 µM [1]: 68.4% | inhibition at 1 µM [1]: 90.8% | inhibition at 0.1 µM [2]: 52.6% | inhibition at 1 µM [2]: 83.7%

Cc1c(NS(C)(=O)=O)cccc1N(Cc1ccc(C#N)cc1)Cc1ccc(Oc2cc(CO)cc(OCCc3cccnc3)c2)cc1 [Example 76, N-(3-((4-cyanobenzyl)(4-(3-(hydroxymethyl)-5-(2-(pyridin-3-yl)ethoxy)phenoxy)benzyl)amino)-2-methylphenyl)methanesulfonamide]
inhibition at 0.1 µM [1]: 85.7% | inhibition at 1 µM [1]: 88.8% | inhibition at 0.1 µM [2]: 87.6% | inhibition at 1 µM [2]: 86.2%

CCS(=O)(=O)Nc1cccc(N(Cc2ccc(Oc3cccc(OCCc4cccnc4)c3)cc2)Cc2cccc(C#N)c2)c1C [Example 60, N-(3-((3-cyanobenzyl)(4-(3-(2-(pyridin-3-yl)ethoxy)phenoxy)benzyl)amino)-2-methylphenyl)ethanesulfonamide]
inhibition at 0.1 µM [1]: 90% | inhibition at 1 µM [1]: 91.7% | inhibition at 0.1 µM [2]: 95.1% | inhibition at 1 µM [2]: 96.3%

Cc1c(NS(C)(=O)=O)cccc1N(Cc1ccc(Oc2cc(CO)cc(OCC3CCOC3)c2)cc1)Cc1cccc(C#N)c1 (centres unmarked) [Example 80, N-(3-((3-cyanobenzyl)(4-(3-(hydroxymethyl)-5-((tetrahydrofuran-3-yl)methoxy)phenoxy)benzyl)amino)-2-methylphenyl)methanesulfonamide]
inhibition at 0.1 µM [2]: 84.1% | inhibition at 1 µM [2]: 86.5%

Cc1c(NS(C)(=O)=O)cccc1N(Cc1ccc(C#N)cc1)Cc1ccc(Oc2cc(CO)cc(OCC3CCOC3)c2)cc1 (centres unmarked) [Example 81, N-(3-((4-cyanobenzyl)(4-(3-(hydroxymethyl)-5-((tetrahydrofuran-3-yl)methoxy)phenoxy)benzyl)amino)-2-methylphenyl)methanesulfonamide]
inhibition at 0.1 µM [2]: 88.9% | inhibition at 1 µM [2]: 88.2%

CNC(=O)c1cc(OCCc2cccnc2)cc(Oc2ccc(CN(Cc3ccc(C#N)cc3)c3cccc(NS(C)(=O)=O)c3C)cc2)c1 [Example 74, 3-(4-(((4-cyanobenzyl)(2-methyl-3-(methylsulfonamido)phenyl)amino)methyl)phenoxy)-N-methyl-5-(2-(pyridin-3-yl)ethoxy)benzamide]
inhibition at 0.1 µM [1]: 100% | inhibition at 1 µM [1]: 100% | inhibition at 0.1 µM [2]: 90.4% | inhibition at 1 µM [2]: 100%

Cc1c(NS(C)(=O)=O)cccc1N(Cc1ccc(C#N)cc1)Cc1ccc(Oc2cccc(OCCc3cccs3)c2)cc1 [Example 35, N-(3-((4-cyanobenzyl)(4-(3-(2-(thiophen-2-yl)ethoxy)phenoxy)benzyl)amino)-2-methylphenyl)methanesulfonamide]
inhibition at 0.1 µM [1]: 28% | inhibition at 1 µM [1]: 54% | inhibition at 0.1 µM [2]: 41.8% | inhibition at 1 µM [2]: 83.4%

Cc1c(NS(C)(=O)=O)cccc1N(Cc1ccccc1)Cc1ccc(Oc2cccc(OCCc3cccnc3)c2)cc1 [Example 78, N-(3-(benzyl(4-(3-(2-(pyridin-3-yl)ethoxy)phenoxy)benzyl)amino)-2-methylphenyl)methanesulfonamide]
inhibition at 0.1 µM [1]: 62% | inhibition at 1 µM [1]: 74% | inhibition at 0.1 µM [2]: 67.9% | inhibition at 1 µM [2]: 83.9%

Cc1c(NS(C)(=O)=O)cccc1N(Cc1ccc(Oc2cccc(OCC3CCOC3)c2)cc1)Cc1cccc(C#N)c1 (centres unmarked) [Example 55, N-(3-((3-cyanobenzyl)(4-(3-((tetrahydrofuran-3-yl)methoxy)phenoxy)benzyl)amino)-2-methylphenyl)methanesulfonamide]
inhibition at 0.1 µM [1]: 55% | inhibition at 1 µM [1]: 76% | inhibition at 0.1 µM [2]: 1.54% | inhibition at 1 µM [2]: -1.12%

CCS(=O)(=O)Nc1cccc(N(Cc2ccc(C#N)cc2)Cc2ccc(Oc3cccc(OCc4ccoc4)c3)cc2)c1C [Example 20, N-(3-((4-cyanobenzyl)(4-(3-(furan-3-ylmethoxy)phenoxy)benzyl)amino)-2-methylphenyl)ethanesulfonamide]
inhibition at 0.1 µM [1]: 92.2% | inhibition at 1 µM [1]: 97.9% | inhibition at 0.1 µM [2]: 88.9% | inhibition at 1 µM [2]: 93.6%

Cc1c(NS(C)(=O)=O)cccc1N(Cc1ccc(C#N)cc1)Cc1ccc(Oc2cc(C#N)cc(OCC3CCOC3)c2)cc1 (centres unmarked) [Example 82, N-(3-((4-(3-cyano-5-((tetrahydrofuran-3-yl)methoxy)phenoxy)benzyl)(4-cyanobenzyl)amino)-2-methylphenyl)methanesulfonamide]
inhibition at 0.1 µM [1]: 60% | inhibition at 1 µM [1]: 83% | inhibition at 0.1 µM [2]: 50% | inhibition at 1 µM [2]: 71.1%

Cc1c(NS(C)(=O)=O)cccc1N(Cc1ccc(C#N)cc1)Cc1ccc(Oc2cc(CO)cc(OCc3cccnc3)c2)cc1 [Example 79, N-(3-((4-cyanobenzyl)(4-(3-(hydroxymethyl)-5-(pyridin-3-ylmethoxy)phenoxy)benzyl)amino)-2-methylphenyl)methanesulfonamide]
inhibition at 0.1 µM [1]: 97% | inhibition at 1 µM [1]: 97% | inhibition at 0.1 µM [2]: 87.7% | inhibition at 1 µM [2]: 88.2%

CCS(=O)(=O)Nc1cccc(N(Cc2ccc(C#N)cc2)Cc2ccc(Oc3cc(CO)cc(OCc4cccnc4)c3)cc2)c1C [Example 85, N-(3-((4-cyanobenzyl)(4-(3-(hydroxymethyl)-5-(pyridin-3-ylmethoxy)phenoxy)benzyl)amino)-2-methylphenyl)ethanesulfonamide]
inhibition at 0.1 µM [2]: 88.5% | inhibition at 1 µM [2]: 91.2%

CCS(=O)(=O)Nc1cccc(N(Cc2ccc(Oc3cc(CO)cc(OCC4CCOC4)c3)cc2)Cc2cccc(C#N)c2)c1C (centres unmarked) [Example 86, N-(3-((3-cyanobenzyl)(4-(3-(hydroxymethyl)-5-((tetrahydrofuran-3-yl)methoxy)phenoxy)benzyl)amino)-2-methylphenyl)ethanesulfonamide]
inhibition at 0.1 µM [2]: 95.5% | inhibition at 1 µM [2]: 95.6%

Cc1c(NS(C)(=O)=O)cccc1N(Cc1ccc(Oc2cc(OCCc3cccnc3)cc(C(N)=O)c2)cc1)Cc1ccc(C#N)c(F)c1 [Example 83, 3-(4-(((4-cyano-3-fluorobenzyl)(2-methyl-3-(methylsulfonamido)phenyl)amino)methyl)phenoxy)-5-(2-(pyridin-3-yl)ethoxy)benzamide]
inhibition at 0.1 µM [1]: 95.7% | inhibition at 1 µM [1]: 95.1% | inhibition at 0.1 µM [2]: 93.4% | inhibition at 1 µM [2]: 94.5%

Cc1c(NS(C)(=O)=O)cccc1N(Cc1ccc(C#N)cc1)Cc1ccc(Oc2cc(C#N)cc(OCCc3cccnc3)c2)cc1 [Example 84, N-(3-((4-(3-cyano-5-(2-(pyridin-3-yl)ethoxy)phenoxy)benzyl)(4-cyanobenzyl)amino)-2-methylphenyl)methanesulfonamide]
inhibition at 0.1 µM [1]: 95% | inhibition at 1 µM [1]: 94.9% | inhibition at 0.1 µM [2]: 94.6% | inhibition at 1 µM [2]: 93.7%

Cc1c(NS(C)(=O)=O)cccc1N(Cc1ccc(C#N)cc1)Cc1ccc(Oc2cccc(OCC3CCOC3)c2)cc1 (centres unmarked) [Example 58, N-(3-((4-cyanobenzyl)(4-(3-((tetrahydrofuran-3-yl)methoxy)phenoxy)benzyl)amino)-2-methylphenyl)methanesulfonamide]
inhibition at 0.1 µM [1]: 45% | inhibition at 1 µM [1]: 76% | inhibition at 0.1 µM [2]: 13.1% | inhibition at 1 µM [2]: 55%

Cc1c(NS(C)(=O)=O)cccc1N(Cc1ccc(C#N)cc1)Cc1ccc(Oc2cc(OCCc3cccnc3)cc(C(N)=O)c2)cc1 [Example 75, 3-(4-(((4-cyanobenzyl)(2-methyl-3-(methylsulfonamido)phenyl)amino)methyl)phenoxy)-5-(2-(pyridin-3-yl)ethoxy)benzamide]
inhibition at 0.1 µM [1]: 98.2% | inhibition at 1 µM [1]: 100% | inhibition at 0.1 µM [2]: 75.3% | inhibition at 1 µM [2]: 100%
